Consider one compound from patent US5824700A, “Ortho-quinone derivatives novel synthesis therefor and their use in the inhibition of neoplastic cell growth” (Wisconsin Alumni Research Foundation, priority 1996, dated 1998).

The test system of test [1] is A549. The test is described as follows: Colony formation / cell survival assay, A549 lung cancer cells. In kind it is cell-based. The conditions noted are these: Homo sapiens, A549, 4 h. As to the method: The control flasks are treated with DMSO only. […] The remaining flasks are left untouched.
The cells are monitored for colony formation. […] The plating efficiency for each dish is then calculated.
The compounds tested were β-lapachone, 3-hydroxy-β-lapachone, 3,3-DINOR-dunnione (designated "Drug A" in the figures), 3-NOR-dunnione (designated "Drug B" in the figures) and dunnione itself (designated "Drug C" in the figures). A legend for the figures is provided below. The cell lines were cultured and the compounds evaluated according to the standard protocol described above.

Test [2] deals with Topoisomerase II. Briefly: Topoisomerase II-mediated DNA cleavage (electrophoresis). The format is biochemical, mammalian. The conditions noted are these: gels of FIGS. 9A and 9B. As to the method: Analogous experiments to assay the ability of several of the compounds described herein to induce Topoisomerase II (Topo II)-mediated DNA cleavage were also performed. The results of one such experiment are depicted in the electrophoretegram of FIGS. 9A and 9B. Here, DNA was incubated in the presence of Topo II and several different compounds described herein.
A legend for the compounds which were tested in FIGS. 9A and 9B is as follows: [drawing 25] Lane 1: R=H (β-lapachone) Lane 2: R=OH
In the far left-hand lane of […], DNA alone is shown. Moving to the right, the next lane contains DNA and Topo II (mammalian). Lanes 1-9 of FIGS. 9A and 9B contain a series of concentrations of drugs (see Legend, above) in the presence of DNA and Topo II. Each set of lanes for each drug spans 3 orders of magnitude in concentration (0.1, 1, 10, and 100 μM). […] However, Lanes 1-9, which contain DNA, Topo II, and a drug according to the present invention, show extensive DNA cleavage.

The test system of test [3] is human breast cancer cell line MCF7. Briefly: IC50 determination (DNA amount and anchorage-dependent colony formation), breast cancer MCF7. The conditions noted are these: MCF7, 24 hours exposure. The format is cell-based. As to the method: (§1) Table 15 lists the IC50 determinations of Drugs B, C, and D against the human prostate cancer cell line PC-3 and the human breast cancer cell line MCF7. IC50 calculations for each cell line were determined by DNA amount and anchorage-dependent colony formation (CF) as described elsewhere. (See Planchon et al. Cancer Res. 55, 3706 (1995), incorporated herein by reference.) In short, IC50 calculations for each cell line were determined by DNA amount and anchorage-dependent colony formation (CF) assays. For the CF assay, cells were seeded at 500 viable cells/well in 6-well plates and incubated overnight, then treated with equal volumes of media containing β-lapachone at final concentrations ranging from 0.005 to 50 μM in half-log increments (controls were treated with 0.25% DMSO, equivalent to the highest dose of β-lapachone used) for 4 hours or for continuous 12 hour exposures. Plates (3 wells/condition) were stained with crystal violet, and colonies of >50 normal-appearing cells were enumerated. IC50 values for various cells were calculated using drug doses with numbers of colonies surrounding 50% of control. For DNA assays, plates were harvested for IC50 determinations 8 days after treatment using a CytoFluor 2350 fluorescence measurement system (Millipore). Six-well samplings were included in the calculation of DNA fluor units for each dose. A graph of β-lapachone dose versus percentage control DNA in fluor units was used to calculate each IC50. The cells were exposed for 24 hours to the tricyclic naphthoquinones. All experiments were repeated at least twice, each in duplicate. PC-3 is an androgen-independent prostate cancer cell line.

The subject of test [4] is human prostate cancer cell line PC-3. The test is described as follows: IC50 determination (DNA amount and anchorage-dependent colony formation), prostate cancer PC-3. The format is cell-based. To be noted: PC-3, 24 hours exposure. As to the method:
as §1

For test [5], the system named is MCF7. The test is described as follows: Colony formation / cell survival assay, MCF7 breast cancer cells. The conditions noted are these: Homo sapiens, MCF7, 4 h.
Method: 10 standard culture flasks for each drug to be tested are plated with 5×10^5 cells in 5 mL of media and allowed to incubate for 16-24 hours at 37° C.
Fresh stocks of the compounds to be evaluated are prepared in sterile DMSO. For each drug, two of the ten culture flasks prepared on Day 1 are used as controls. The control flasks are treated with DMSO only. […] The remaining flasks are left untouched. The cells are incubated for 4 hours at 37° C.
After 4 hours the control flasks are counted (2 counts for each flask) and the cells per mL calculated based on the average of the control counts. The cells are then replated into six 60 mm dishes for each flask from dilutions based on the cells/mL of the control. (In the various test runs, cell concentrations ranged from approximately 50 to approximately 800 cells per mL.) Day 15-20:
The cells are monitored for colony formation. […] The plating efficiency for each dish is then calculated. The plating efficiencies of the six dishes for each flask are averaged and the standard deviation is calculated. The fraction of cell survival at each concentration is determined based on the controls and plotted as log fraction of cell survival±standard deviation versus the dose of the compound.
In the same fashion as the above tests, several lapachone and dunnione derivatives were evaluated for their efficacy in inhibiting the proliferation of breast cancer cells. In this instance, the cancer cell line utilized was MCF7.

Consider `CC1OC2=C(C(=O)C(=O)c3ccccc32)C1(C)C` (stereo not shown) [Drug C, 2,3,3-trimethyl-2,3,4,5-tetrahydro-naphtho(2,3-b)dihydrofuran-6,7-dione], for which the IC50 was determined as 4.3 µM in test [1] (A549, 4 h exposure, FIG. 5, read-out: ED50 (the source's name)); 0.7 µM in test [3]; 0.6 µM in test [4]; 1.4 µM in test [5] (read-out: ED50, MCF7, 4 h exposure, FIG. 8). Besides, the viability at 1 µM in test [1] (read-out: Fraction of Cell Survival, A549, FIG. 5, 1 μM, 4 h) was found to be 110%; in test [5] (read-out: Fraction of Cell Survival, MCF7, FIG. 8, 1 μM, 4 h), 55.8%. Also, the viability at 5 µM amounted to 40% in test [1] (read-out: Fraction of Cell Survival, A549, FIG. 5, 5 μM, 4 h) and 0.65% in test [5] (read-out: Fraction of Cell Survival, MCF7, FIG. 8, 5 μM, 4 h). Besides, the viability at 10 µM in test [1] (read-out: Fraction of Cell Survival, A549, FIG. 5, 10 μM, 4 h) amounted to 0%; in test [5] (read-out: Fraction of Cell Survival, MCF7, FIG. 8, 10 μM, 4 h), 0.32%. Also, the viability at 50 µM in test [1] (read-out: Fraction of Cell Survival, A549, FIG. 5, 50 μM, 4 h) is 0%; in test [5] (read-out: Fraction of Cell Survival, MCF7, FIG. 8, 50 μM, 4 h) it was 0.65%. Further, in test [2], the “intracellular target (in words)” value is reported as “Topo II is an intracellular target”.
